# Measured values from patent US8048923B2, “Treatment of polyglutamine disorders caused by expanding genomic CAG nucleotides” (Odessa Pharma, priority 2003, dated 2011).
# Columns and labels:
# Huntington's disease = conditions: patients, cited from earlier work; for slowing of progression of Huntington's disease: large-scale clinical trial
# [1] = system: Differentiated inducible PC12 cells; test: L-glutamine add-back to MSO treated PC12 culture; assay type: cell-based
# Experimental: The cells are grown overnight and aggregation is calculated. Inhibition of aggregation proceeds in a concentration-dependent manner.
# In contrast, the addition of L-GLN has no effect on the growth of cells not treated with MSO or cultures treated with subinhibitory concentrations of MSO.
# [2] = system: brain levels of glutamine; conditions: MSO administered to normal animals; reduced from 5.6; cited from earlier work
# [3] = system: Differentiated inducible PC12 cells; conditions: MSO 1-100 μM, low glutamine medium, overnight, fluorescent microscopy counts
# Experimental: Cells (1×10^6) are plated in 10-cm plates using tissue culture medium low in glutamine to ensure that most of the glutamine in the cells is the product of de novo synthesis by cellular glutamine synthetase. […] MSO is added directly to the cell-culture media at final concentrations of 1-100 μM. The cells are grown overnight and aggregation is calculated. […] Visual counts of aggregates are performed by using fluorescent microscopy.
# glutamine synthetase = glutamine synthetase (Homo sapiens, UniProt P15104); conditions: cited from earlier work
# [4] = system: Drosophila transgenic polyQ line P{UAS-Q48myc}^42; conditions: Q48 flies fed MSO; Q48 flies without MSO need an average of 26 sec
# Experimental: Flies are mated at 25° C. as described in Nature 413, 739-743. Eggs are collected and transferred into vials at 29° C. containing standard food supplemented with MSO, and adults are transferred to vials containing fresh food every 3 days after eclosion.
# A second phenotype associated with expanded polyQ expression is a decrease in motor function. This is assayed by using an “escape” or climbing assay as described in Exp. Gerontol.
# [5] = in vivo; cited from earlier work
# [6] = system: mice with the gene mutation for Huntington's disease (HD); conditions: cited from earlier work
# Chain of glutamine synthetase (P15104 2-373 limits assumed, species assumed): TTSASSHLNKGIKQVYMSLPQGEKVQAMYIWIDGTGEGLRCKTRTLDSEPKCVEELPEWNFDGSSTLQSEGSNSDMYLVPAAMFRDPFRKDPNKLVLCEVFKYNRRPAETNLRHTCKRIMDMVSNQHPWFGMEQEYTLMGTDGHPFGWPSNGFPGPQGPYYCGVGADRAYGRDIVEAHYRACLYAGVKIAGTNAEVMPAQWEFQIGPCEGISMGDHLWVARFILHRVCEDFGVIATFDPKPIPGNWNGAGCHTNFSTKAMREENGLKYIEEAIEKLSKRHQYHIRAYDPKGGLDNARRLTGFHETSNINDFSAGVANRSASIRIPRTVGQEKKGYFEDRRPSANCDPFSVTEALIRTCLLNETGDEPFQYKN
smiles,measurement,setting,value
CC(Cc1ccccc1)(NC(=O)CN)c1ccccc1 (stereo not shown) [Remacemide],slowing of progression of Huntington's disease,Huntington's disease,neither drug resulted in any significant improvement
NC(=O)CC[C@H](N)C(=O)O [L-glutamine],toxic protein synthesis and aggregation after addition of L-glutamine,[1]; MSO treated culture,increased toxic protein synthesis and aggregation
same,growth of cells after addition of L-GLN,[1]; cells not treated with MSO or treated with subinhibitory concentrations of MSO,no effect
"CS(=N)(=O)CC[C@H](N)C(=O)O (stereo partly drawn) [MSO, L-methionine S-sulfoximine]",brain levels of glutamine,[2],1.8 mmol/kg brain
same,visible aggregate production (aggregation),[3],inhibit aggregation
same,type of inhibition of glutamine synthetase,glutamine synthetase,irreversible inhibitor
same,time to climb a defined distance up a vial (motor function),[4],require less time to climb the same distance
"CP(=O)(O)CCC(N)C(=O)O [Glufosinate, ammonium-D-L-homoalanine-4-yl(methyl)-phosphinate]",crossing of the blood brain barrier,[5],does not cross the blood brain barrier
same,type of inhibition of glutamine synthetase,glutamine synthetase,catalytic inhibitor
COC1=C(OC)C(=O)C(C/C=C(\C)CC/C=C(\C)CC/C=C(\C)CC/C=C(\C)CC/C=C(\C)CC/C=C(\C)CC/C=C(\C)CC/C=C(\C)CC/C=C(\C)CCC=C(C)C)=C(C)C1=O [Coenzyme Q10],slowing of progression of Huntington's disease,Huntington's disease,neither drug resulted in any significant improvement
same,disease progression after one year of treatment,"Huntington's disease; one year of treatment, overall results inconclusive",seemed to progress more slowly
NCCSSCCN [cystamine],tremors and survival,[6]; HD mutation mice,alleviate tremors and prolong life
same,levels of neuroprotective proteins,"[6]; mouse, in vivo",increase the levels of certain neuroprotective proteins
